The values that follow come from ChEMBL document CHEMBL3098053, “Inhibition of serine and proline racemases by substrate-product analogues” (Bioorg Med Chem Lett, 2014).

Molecules are shown by their SMILES.

In assay [1] the target is T1, Proline racemase (Clostridium sticklandii) (UniProt Q9L4Q3).
T1 sequence (whole entry): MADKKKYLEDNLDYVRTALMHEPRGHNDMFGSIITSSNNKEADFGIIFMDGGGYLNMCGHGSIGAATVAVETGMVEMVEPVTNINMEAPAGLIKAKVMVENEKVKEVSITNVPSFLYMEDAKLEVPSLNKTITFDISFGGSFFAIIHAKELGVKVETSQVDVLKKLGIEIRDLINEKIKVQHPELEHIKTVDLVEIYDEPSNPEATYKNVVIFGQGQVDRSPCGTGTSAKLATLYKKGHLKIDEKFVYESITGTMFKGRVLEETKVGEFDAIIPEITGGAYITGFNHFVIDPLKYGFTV
The assay is described as follows: Inhibition of Clostridium sticklandii ATCC 12662 proline racemase L-proline as substrate at 57 mM relative to control. Conditions: Acetoanaerobium sticklandii.

In assay [2] the target is T1, Proline racemase (Clostridium sticklandii). The assay is described as follows: Inhibition of Clostridium sticklandii ATCC 12662 proline racemase using L-proline as substrate at 0.36 mM relative to control. The following applies: Acetoanaerobium sticklandii.
The target of assay [3] is T2, Proline racemase (Clostridium sticklandii, UniProt Q9L4Q3).
T2 sequence (Q9L4Q3 whole entry): T1 sequence (whole entry)
The assay is described as follows: Competitive inhibition of N-terminal 6xHis-tagged Clostridium sticklandii ATCC 12662 proline racemase expressed in Escherichia coli BL21(DE3) using L/D-proline as substrate. Set-up: species or system Acetoanaerobium sticklandii.

Assay [4] addresses T1, Proline racemase (Clostridium sticklandii). In words: Inhibition of N-terminal 6xHis-tagged Clostridium sticklandii ATCC 12662 proline racemase expressed in Escherichia coli BL21(DE3) using L/D-proline as substrate at 142.5 mM preincubated for 5 mins by circular dichroism-based analysis. Conditions: Acetoanaerobium sticklandii.
Assay [5] deals with T2, Proline racemase. The assay is described as follows: Noncompetitive inhibition of N-terminal 6xHis-tagged Clostridium sticklandii ATCC 12662 proline racemase expressed in Escherichia coli BL21(DE3) using L/D-proline as substrate preincubated for 5 mins by Cornish-Bowden plot analysis. Set-up: species or system Acetoanaerobium sticklandii.
The target in assay [6] is T2, Proline racemase. In words: Inhibition of N-terminal 6xHis-tagged Clostridium sticklandii ATCC 12662 proline racemase expressed in Escherichia coli BL21(DE3) using L/D-proline as substrate preincubated for 5 mins by circular dichroism-based analysis. Set-up: species or system Acetoanaerobium sticklandii.
Assay [7] concerns the target T3, Serine racemase (Schizosaccharomyces pombe (strain 972 / ATCC 24843) (Fission yeast), UniProt O59791).
T3 sequence (O59791 whole entry): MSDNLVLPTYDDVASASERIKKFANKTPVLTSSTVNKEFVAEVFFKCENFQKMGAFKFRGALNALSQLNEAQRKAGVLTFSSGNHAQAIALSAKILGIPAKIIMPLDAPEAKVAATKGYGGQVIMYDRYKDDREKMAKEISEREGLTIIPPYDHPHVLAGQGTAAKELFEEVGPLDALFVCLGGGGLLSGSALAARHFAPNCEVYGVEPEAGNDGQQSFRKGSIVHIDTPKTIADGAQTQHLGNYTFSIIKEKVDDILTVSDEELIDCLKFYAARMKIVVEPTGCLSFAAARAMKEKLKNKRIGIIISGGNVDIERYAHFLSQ
In words: Mixed type inhibition of N-terminal 6xHis-tagged recombinant Schizosaccharomyces pombe 972 serine racemase expressed in Escherichia coli BL21(DE3) using L-serine as substrate assessed as enzyme-substrate-inhibitor complex preincubated for 2 mins followed by substrate addition by double reciprocal plot analysis.

The target of assay [8] is T3, Serine racemase. In words: Mixed type inhibition of N-terminal 6xHis-tagged recombinant Schizosaccharomyces pombe 972 serine racemase expressed in Escherichia coli BL21(DE3) using L-serine as substrate assessed as enzyme-inhibitor complex preincubated for 2 mins followed by substrate addition by double reciprocal plot analysis.

Consider `O=Cc1ccc[nH]1`, for which the inhibition in assay [1] came to 98%; in assay [2], 50%. Also, the Ki at Proline racemase [3] was determined as 0.0058 mM.
In assay [4], `O=C(O)C12CCC(CC1)N2` returned an inhibition of 29%.
Take `O=C(O)C12CCCN1CCC2`: the Ki at Proline racemase [5] is 111 mM. Besides, the IC50 against Proline racemase [6] came to 67 mM.
On to `NC(CO)(CO)C(=O)O`, for which the Ki stood at 661 mM on Serine racemase [7] and 167 mM at Serine racemase [8].
